Experimental data published in patent US5565336A, “Carboxy terminal IL-6 muteins” (University of North Carolina at Chapel Hill, priority 1994, dated 1996).

Assays:
[1] = system: human hepatoma cell line HEP3B2; test: hepatocyte stimulation (fibrinogen induction) assay using human hepatoma cell line HEP3B2; type: cell-based; details: in vitro activity on a human hepatoma cell line; result in words
Description: The biological activity of wild-type IL-6 and IL-6 muteins can be measured by standard assays for measuring IL-6 activity, as is known in the art. For example, the in vitro biological activity of the IL-6 muteins of the invention may be compared with native IL-6 in a fibrinogen induction assay using a human hepatoma cell line, HEP3B2. When determined in such an assay and expressed as a percentage of activity of native, wild-type, IL-6, the activity of which is defined as 100%, the biological activity of the muteins of the present invention is at least 125%, preferably at least 150%. (See Example 3 and FIG. 6)
The hepatocyte stimulation assay using human hepatoma cell line HEP3B2 is carried out in duplicate serial dilutions of three or more independent preparations of each IL-6 mutein. The biological activity is determined from dose response curves prepared for each protein preparation. To minimize variation, a duplicate protein preparation of wild-type IL-6 is used in each 96-well tissue culture plate to calculate the activity of two (HEP3B2) IL-6 muteins on the same plate as a percentage of wild-type IL-6 activity. (See FIG. 6)
Cells from the human hepatoma cell line HEP3B2 are maintained in DMEM-H medium supplemented with 10% fetal bovine serum and penicillin/streptomycin. […] The OD405 is determined on a Vmax ELISA plate reader (Molecular Devices Corp., Palo Alto, Calif.). […]

[2] = system: IL-6 receptor; test: binding competition assay / Scatchard analysis with 125I-IL-6 on human myeloma cell line U-266; details: Kd wild-type IL-6 divided by Kd mutein; result in words
Description: The affinity may be determined with a Scatchard analysis and quantitated as a dissociation constant, Kd.
Binding competition assays are performed using human recombinant IL-6 derived from Escherichia coli (Genetics Institute, Cambridge, Mass.). IL-6 is radioiodinated using the Bolton-Hunter reagent (New England Nuclear, Wilmington, Del.) as described by Faltynek, C. […] The specific activity of the radiolabelled IL-6 is 22 μC/μg. […] This medium is also used for making the dilutions of the IL-6 muteins and as the binding medium. The fetal bovine serum batches are routinely tested for IL-6 activity and only batches that show negligible IL-6 activity are used for competition binding assays. […]
Binding is performed by sealing the plates with acetate plate sealers (ICN Biomedicals, Costa Mesa, Calif.) and end-over rotation for 3 hours at 4° C. […] The cell pellets are washed once with 200 μl of ice-cold Ca^++ /Mg^+ free Hank's balanced salt solution (HBSS), resuspended in 200 μl of HBSS, transferred to scintillation vials and counted in a gamma counter.
The results of the Scatchard and competition binding assays are analyzed using a non-linear curve fitting program LIGAND. […] An apparent IC50 is calculated using the EBDA/LIGAND program.

IL-6 mutein with Phenylalanine at position 171 of the native sequence (Phe^171) replaced by Leucine (Leu): mutein of human IL-6 with substitution of Phenylalanine by Leucine at position 171; SEQ. ID. NOS. 3 and 4
biological activity compared to wild-type IL-6 [1]: higher biological activity
receptor binding capacity compared to wild-type IL-6 [2]: increased receptor binding capacity
